Calls of active or inactive are those of the source. The rule behind the calls is not given here.
target: Perilipin-5 (Homo sapiens) + 1-acylglycerol-3-phosphate O-acyltransferase ABHD5 (Homo sapiens) (UniProt Q00G26+Q8WTS1); experiment: blockers of ABHD5 binding to perilipin-5 – biochemical, luminescence, dose response (AID 651677); settings: ABHD5-PLIN5 interaction
Sequence (Q00G26 whole entry, looked up): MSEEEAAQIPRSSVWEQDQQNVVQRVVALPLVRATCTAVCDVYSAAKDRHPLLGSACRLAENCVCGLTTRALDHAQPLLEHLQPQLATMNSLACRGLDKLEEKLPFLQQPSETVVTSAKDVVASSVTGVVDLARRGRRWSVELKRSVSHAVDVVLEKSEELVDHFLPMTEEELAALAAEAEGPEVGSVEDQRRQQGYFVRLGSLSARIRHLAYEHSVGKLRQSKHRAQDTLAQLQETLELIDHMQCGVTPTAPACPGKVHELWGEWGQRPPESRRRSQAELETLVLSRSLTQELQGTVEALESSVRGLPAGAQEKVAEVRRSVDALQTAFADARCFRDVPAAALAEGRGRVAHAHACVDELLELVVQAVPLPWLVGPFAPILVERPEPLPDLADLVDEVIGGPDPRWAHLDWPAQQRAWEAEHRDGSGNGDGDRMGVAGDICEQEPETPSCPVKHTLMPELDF
Sequence (Q8WTS1 whole entry, looked up): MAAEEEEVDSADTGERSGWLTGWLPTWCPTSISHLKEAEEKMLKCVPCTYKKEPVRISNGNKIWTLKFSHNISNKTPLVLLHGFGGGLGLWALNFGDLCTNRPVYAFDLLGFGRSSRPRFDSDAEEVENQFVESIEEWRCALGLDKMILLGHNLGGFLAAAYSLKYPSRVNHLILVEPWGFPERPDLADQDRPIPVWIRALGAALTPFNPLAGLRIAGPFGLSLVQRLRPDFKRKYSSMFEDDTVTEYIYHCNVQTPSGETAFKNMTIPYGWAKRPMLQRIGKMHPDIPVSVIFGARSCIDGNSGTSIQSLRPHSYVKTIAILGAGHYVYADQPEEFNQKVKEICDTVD

In order of falling IC50:
1. CCCCCNC(=O)C(C1CC1)n1c(=O)c(-c2ccco2)nc2ccccc21 (stereo not drawn)  9790 nM
2. CC1CCN(S(=O)(=O)c2ccc(NC(=O)Cc3ccccc3)cc2)CC1  9470 nM
3. CCOC(=O)C1C(OC(=O)c2ccccc2)CC2CCC1N2C (stereo not drawn)  9390 nM
4. Cc1cc(C)c(NC(=O)CN2CCN3CCCC3C2)c(C)c1 (stereo not drawn)  9270 nM
5. COc1ccc(NC(=O)C(c2ccccc2)n2c(=O)c(-c3ccco3)nc3ccccc32)cc1 (stereo not drawn)  8790 nM
6. COc1ccc(NC(=O)C(c2ccc(C#N)cc2)n2c(=O)c(-c3ccco3)nc3ccccc32)cc1 (stereo not drawn)  8620 nM
7. O=C(/C(=C/O)N=Nc1ccc(Cl)cc1)c1ccncc1  8340 nM
8. CN(C)CCCN(C(=O)CCc1ccccc1)c1nc2ccc(Br)cc2s1  7910 nM
9. CN(C)CCOC1(Cc2ccc(F)cc2)CCC(C(C)(C)C)CC1 (stereo not drawn)  7330 nM
10. N#Cc1ccc(C(C(=O)Nc2ccc3c(c2)OCCO3)n2c(=O)c(-c3ccco3)nc3ccccc32)cc1 (stereo not drawn)  7270 nM
11. O=C(NCc1ccccc1)C(C1CC1)n1c(=O)c(-c2ccco2)nc2ccccc21 (stereo not drawn)  7200 nM
12. CCOC(=O)c1c(NC(=O)/C=C/C(=O)O)sc(C)c1-c1ccc(C(C)(C)C)cc1  6740 nM
13. CCCCOC(=O)Nc1cc(C(=O)OC)ccc1C(=O)OC  6700 nM
14. COc1ccccc1/C=C/C(=O)c1ccccc1  6630 nM
15. CC(=O)Oc1c(Cl)cc(N(C(C)=O)S(=O)(=O)c2ccccc2)c2ccccc12  6550 nM
16. CC(=O)Oc1c(Br)cc(N(C(C)=O)S(=O)(=O)c2ccccc2)c2ccccc12  6410 nM
17. COC(=O)c1ccc(Cn2cc(/C=C\[N+](=O)[O-])c3ccccc32)o1  6260 nM
18. COc1ccc(NC(=O)C(c2ccc(OC)cc2)n2c(=O)c(-c3ccco3)nc3ccccc32)cc1 (stereo not drawn)  6130 nM
19. C=CC(=O)N1c2ccccc2Sc2ccc(NC(=O)OCC)cc21  6060 nM
20. O=c1[nH]c(C2CCN(S(=O)(=O)c3ccc(S(=O)(=O)NC4CC4)cc3)CC2)nc2c1nnn2Cc1ccc(F)cc1  5660 nM
21. O=C(/C=C/c1ccc2c(c1)OCCCO2)c1ccccc1O  5650 nM
22. O=C(O)CC(O)(CC(=O)O)C(=O)O  5630 nM
23. Cc1ccc(C(=O)/C=C/c2cc(Br)cc(Br)c2O)o1  5540 nM
24. Cc1cc(C)c2nc(NNC(=O)c3ccc(S(=O)(=O)N4CCCC(C)C4)cc3)sc2c1 (stereo not drawn)  5270 nM
25. C#CCN(C[C@@H]1[C@@H](OC(=O)NCc2ccc(OC)c(OC)c2)[C@@H](OC(=O)NCc2ccc(OC)c(OC)c2)Cn2c(=O)ccc(=O)n21)S(=O)(=O)c1ccc(C)cc1  5250 nM
26. C#CCN(C[C@@H]1[C@@H](OC(=O)NCc2ccccc2F)[C@@H](OC(=O)NCc2ccccc2F)Cn2c(=O)ccc(=O)n21)S(=O)(=O)c1ccc(C)cc1  5040 nM
27. COc1ccccc1C=CC(=O)C=Cc1ccccc1OC  4790 nM
28. Cc1ccc(O)c(C(=O)/C=C/c2ccc3c(c2)OCCCO3)c1  4130 nM
29. Cc1ccc(S(=O)(=O)N2C[C@@]3(O)Cn4c(=O)ccc(=O)n4C[C@@]3(OC(=O)NCC3CCCCC3)C2)cc1  3990 nM
30. N#Cc1ccccc1OCc1cn(CC(=O)c2ccc(O)cc2)nn1  3680 nM
31. COC(=O)c1cc(=O)n(Cc2ccco2)c(=Nc2ccc(F)cc2)s1  3680 nM
32. O=c1nc(/C=C/c2ccc(Cl)cc2Cl)cc(C(F)(F)F)[nH]1  3480 nM
33. CCN(CC)CCC(C)OC(c1ccccc1)c1ccccc1 (stereo not drawn)  3420 nM
34. CCCc1nnc(NC(=O)c2nc(S(=O)(=O)Cc3cccc(C)c3)ncc2Cl)s1  3410 nM
35. O=C(/C=C/Sc1ccccc1)c1ccc(Cl)cc1  3380 nM
36. CCc1nnc(NC(=O)c2nc(S(=O)(=O)Cc3cccc(C)c3)ncc2Cl)s1  3330 nM
37. CCC(c1nc2ccccc2[nH]1)n1c(=O)c(-c2ccco2)nc2ccccc21 (stereo not drawn)  3110 nM
38. COC(=O)c1cc(=O)n(-c2ccc(F)cc2)c(=Nc2ccc(F)cc2)s1  3090 nM
39. CN1C(=O)/C(=C/C=C/c2ccco2)C(=O)NC1=S  2960 nM
40. COc1ccc(/C=C\C(=O)CC(O)(c2ccccc2)C(F)(F)F)cc1 (stereo not drawn)  2890 nM
41. CC(=O)C1=C(c2cccc([N+](=O)[O-])c2)N(C(C)=O)n2c(C)nnc2S1  2860 nM
42. O=C1CC(c2ccc(Cl)cc2)Oc2ccc(Cl)cc21 (stereo not drawn)  2840 nM
43. Cc1nc(-c2ccccc2)sc1C(=O)/C=C/c1ccccc1  2790 nM
44. Cc1cccc(C)c1NC(=O)C(c1ccccc1F)n1c(=O)c(-c2ccco2)nc2ccccc21 (stereo not drawn)  2730 nM
45. CCC(=O)Nc1cccc(C(=O)/C=C/c2ccccc2)c1  2710 nM
46. CC1=CC(C)(C)Nc2ccc(OC(=O)C(C)N3C(=O)c4ccccc4C3=O)cc21 (stereo not drawn)  2640 nM
47. CSc1nnc(NC(=O)c2nc(S(=O)(=O)Cc3ccc(C)cc3)ncc2Cl)s1  2510 nM
48. CCN(CC)CCOc1ccc(/C(=C(\Cl)c2ccccc2)c2ccccc2)cc1  2470 nM
49. Cc1cccc(C)c1NC(=O)C(c1ccc(C#N)cc1)n1c(=O)c(-c2ccco2)nc2ccccc21 (stereo not drawn)  2450 nM
50. O=C(NCc1ccccc1)C(c1cc2ccccc2o1)n1c(=O)c(-c2ccco2)nc2ccccc21 (stereo not drawn)  2420 nM
51. CC(C)(C)NC(=O)C(c1cccc2ccccc12)n1c(=O)c(-c2ccco2)nc2ccccc21 (stereo not drawn)  2390 nM
52. O=C(NC1CCCCC1)C(C1CC1)n1c(=O)c(-c2ccco2)nc2ccccc21 (stereo not drawn)  2380 nM
53. CCSc1nnc(NC(=O)c2nc(S(=O)(=O)Cc3ccc(F)cc3)ncc2Cl)s1  2360 nM
54. CC(C)(C)NC(=O)C(c1ccccc1F)n1c(=O)c(-c2ccco2)nc2ccccc21 (stereo not drawn)  2280 nM
55. O=C(NCc1ccccc1)C(c1ccccc1F)n1c(=O)c(-c2ccco2)nc2ccccc21 (stereo not drawn)  2270 nM
56. Cc1cccc(C)c1NC(=O)C(c1ccc(C(F)(F)F)cc1)n1c(=O)c(-c2ccco2)nc2ccccc21 (stereo not drawn)  2220 nM
57. COc1ccc(C(C(=O)NCc2ccccc2)n2c(=O)c(-c3ccco3)nc3ccccc32)cc1 (stereo not drawn)  2220 nM
58. CC1=CC(C)(C)Nc2ccc(OC(=O)CN3C(=O)CCC3=O)cc21  2200 nM
59. CC1CN(Cc2c(O)ccc3c2oc(=O)c2ccccc23)CC(C)O1 (stereo not drawn)  2120 nM
60. O=C(Nc1ccc(Cl)cc1)/C(=C/c1cccc(O)c1)c1nc2ccccc2s1  2100 nM
61. CN(C)c1ccc(Cc2cc3c(O)ccc(O)c3cc(Cc3ccc(N(C)C)cc3)c2=O)cc1  1990 nM
62. Cc1oc2c(c1C(=O)c1ccc(Cl)cc1)C(=O)C(=O)c1ccccc1-2  1980 nM
63. N#Cc1ccc(C(C(=O)NC2CCCCC2)n2c(=O)c(-c3ccco3)nc3ccccc32)cc1 (stereo not drawn)  1880 nM
64. CC(C)(C)NC(=O)C(c1ccc(C#N)cc1)n1c(=O)c(-c2ccco2)nc2ccccc21 (stereo not drawn)  1850 nM
65. Cc1cccc(C)c1NC(=O)C(c1cccc2ccccc12)n1c(=O)c(-c2ccco2)nc2ccccc21 (stereo not drawn)  1810 nM
66. C#CCN(C[C@@H]1[C@@H](OC(=O)Nc2cccs2)[C@@H](OC(=O)Nc2cccs2)Cn2c(=O)ccc(=O)n21)S(=O)(=O)c1ccc(C)cc1  1780 nM
67. COC/C=C/C1=CC2=CC(=O)C(C)(OC(=O)C3CCCC3)C(=O)C2=CO1 (stereo not drawn)  1750 nM
68. O=C(NC1CCCCC1)C(c1ccnc2ccccc12)n1c(=O)c(-c2ccco2)nc2ccccc21 (stereo not drawn)  1660 nM
69. CCC1(C)N=C(c2ccc3c(c2)OCO3)CC(c2ccccc2O)N1 (stereo not drawn)  1570 nM
70. O=C1NC(=O)N(c2ccccc2F)C(=O)/C1=C/c1ccc(Oc2ccc([N+](=O)[O-])cn2)cc1  1470 nM
71. CN(C)CCOc1ccc(/C(=C(/CCCl)c2ccccc2)c2ccccc2)cc1  1380 nM
72. CC(C)(C)NC(=O)C(c1ccc(C(F)(F)F)cc1)n1c(=O)c(-c2ccco2)nc2ccccc21 (stereo not drawn)  1330 nM
73. O=C1NC(=O)N(Cc2ccccc2)C(=O)/C1=C\C=C\c1ccco1  1320 nM
74. O=C(NCc1ccccc1)C(c1ccc(C(F)(F)F)cc1)n1c(=O)c(-c2ccco2)nc2ccccc21 (stereo not drawn)  1310 nM
75. O=C(NC1CCCCC1)C(c1ccccc1F)n1c(=O)c(-c2ccco2)nc2ccccc21 (stereo not drawn)  1260 nM
76. Cc1ccc(NC(=O)CSc2nnc(-c3ccco3)c(-c3ccco3)n2)cc1  1180 nM
77. O=C(/C=C/c1ccccc1)CC(O)(c1ccccc1)C(F)(F)C(F)F (stereo not drawn)  1140 nM
78. CCN1/C(=C/C=C/c2oc3ccc(-c4ccccc4)cc3[n+]2CC)Oc2ccc(-c3ccccc3)cc21  1030 nM
79. Cc1ccc(SC2=C(Sc3ccc(C)cc3)C(=O)c3ccccc3C2=O)cc1  1000 nM
80. CCOC1=CC2=C(C(=O)C(Cl)=CC2=O)[C@@H]2CN(S(=O)(=O)c3ccc(C)cc3)[C@@H](c3ccccc3)[C@H]12  941 nM
81. O=C(NC1CCCCC1)C(c1cccc2ccccc12)n1c(=O)c(-c2ccco2)nc2ccccc21 (stereo not drawn)  940 nM
82. Cc1ccc(/C=C/C(=O)c2cc(Br)ccc2OC(=O)c2ccco2)cc1  922 nM
83. CCCCCNC(=O)C(c1ccccc1F)n1c(=O)c(-c2ccco2)nc2ccccc21 (stereo not drawn)  862 nM
84. CC(O)CC(=O)OC[C@]12CC[C@H]3[C@@](C)(CC[C@H]4C(C)(C)CCC[C@]34C)[C@@H]1CC(C1=CC(=O)OC1O)O2 (stereo partly drawn)  857 nM
85. CCOC(=O)/C(=C\c1ccc(Cl)cc1)c1nc2sc(C)c(C)c2c(=O)[nH]1  750 nM
86. CC(=O)Oc1ccc(C23c4ccccc4C2(OC(C)=O)c2cc(OC(C)=O)ccc23)cc1 (stereo not drawn)  720 nM

`O=S(=O)(NC1=NCCCCC1)c1ccc2sc(NS(=O)(=O)c3ccc4ccccc4c3)nc2c1` was tested, and the IC50 was “inactive”.
`Oc1ccc2sc(-c3ccccc3O)c(-c3ccc(OCCN4CCCCC4)cc3)c2c1` was tested, and the IC50 was “inactive”.
For `O=C(Nc1ccc2c(c1)OCCO2)C(c1ccnc2ccccc12)n1c(=O)c(-c2ccco2)nc2ccccc21` (stereo not drawn), the IC50 was “inactive”.
With `CCN(CC)CCNC(=O)c1ccc(NC(=O)c2cn(-c3ccccc3)nc2-c2cccs2)cc1` the IC50 was “inactive”.
With `CC1CCN(S(=O)(=O)c2ccc(NC(=O)Cc3cccs3)cc2)CC1` the IC50 was “inactive”.
`COc1ccc(NC(=S)N(CCCN2CCCC2)Cc2cccn2Cc2ccc(Cl)cc2)cc1Cl` was tested, and the IC50 was “inactive”.
For `COc1ccc(NC(=O)C(c2cccc3ccccc23)n2c(=O)c(-c3ccco3)nc3ccccc32)cc1` (stereo not drawn), the IC50 was “inactive”.
For `COc1cc(OC)cc(C(=O)NC(=S)N(Cc2ccccc2)C(C)C)c1`, the IC50 was “inactive”.
`CN(C)CCOc1ccc(-c2c(-c3ccccc3)sc3ccccc23)cc1` was tested, and the IC50 was “inactive”.
In the case of `NC(=O)CCN1CCN(CCOC2Cc3cc(Cl)ccc3Sc3ccccc32)CC1` (stereo not drawn), the IC50 is reported as “inactive”.
For `Cc1ccc2sc(N(CCCN(C)C)C(=O)CN3C(=O)c4ccccc4C3=O)nc2c1C`, the IC50 was “inactive”.
With `O=C(Nc1ccc2c(c1)OCCO2)C(c1ccccc1F)n1c(=O)c(-c2ccco2)nc2ccccc21` (stereo not drawn) the IC50 was “inactive”.

Reference: PubChem BioAssay AID651677 (The Scripps Research Institute Molecular Screening Center, 2012)
